The record followed here is patent publication US20240018110A1, “RADIOLABELED COMPOUNDS TARGETING THE PROSTATE-SPECIFIC MEMBRANE ANTIGEN” (THE UNIVERSITY OF BRITISH COLUMBIA, priority 2020, published 2024).

Data set [1] concerns the target PSMA (Homo sapiens, UniProt Q04609). Description: In vitro competitive binding assay.
In data set [2] the test system is LNCaP xenograft. Description: Biodistribution of 68Ga-labeled compounds in mice bearing LNCaP xenograft. It is filed as in vivo. As to conditions: 1 h p.i. The method, then: All chemicals and solvents were obtained from commercial sources, and used without further purification. PSMA-targeted peptides were synthesized using a solid phase approach on an AAPPTec (Louisville, KY) Endeavor 90 peptide synthesizer. Purification of peptides was performed on an Agilent 1260 Infinity II Preparative System equipped with a model 1260 Infinity II preparative binary pump, a model 1260 Infinity variable wavelength detector (set at 220 nm), and a 1290 Infinity II preparative open-bed fraction collector. The HPLC column used was a preparative column (Gemini, NX—C18, 5 μ, 50×30 mm) purchased from Phenomenex. The collected HPLC eluates containing the desired peptide were lyophilized using a Labconco (Kansas City, MO) FreeZone 4.5 Plus freeze-drier. Mass analyses were performed using a Waters LC-MS system with an ESI ion source. C18 Sep-Pak cartridges (1 cm^3, 50 mg) were obtained from Waters (Milford, MA). ^68Ga was eluted from an iThemba Labs (Somerset West, South Africa) generator. Radioactivity of ^68Ga-labeled peptides was measured using a Capintec (Ramsey, NJ) CRC®-25R/W dose calibrator, and the radioactivity of mouse tissues collected from biodistribution studies were counted using a Perkin Elmer (Waltham, MA) Wizard2 2480 automatic gamma counter.

Sequence of PSMA (Q04609 whole entry): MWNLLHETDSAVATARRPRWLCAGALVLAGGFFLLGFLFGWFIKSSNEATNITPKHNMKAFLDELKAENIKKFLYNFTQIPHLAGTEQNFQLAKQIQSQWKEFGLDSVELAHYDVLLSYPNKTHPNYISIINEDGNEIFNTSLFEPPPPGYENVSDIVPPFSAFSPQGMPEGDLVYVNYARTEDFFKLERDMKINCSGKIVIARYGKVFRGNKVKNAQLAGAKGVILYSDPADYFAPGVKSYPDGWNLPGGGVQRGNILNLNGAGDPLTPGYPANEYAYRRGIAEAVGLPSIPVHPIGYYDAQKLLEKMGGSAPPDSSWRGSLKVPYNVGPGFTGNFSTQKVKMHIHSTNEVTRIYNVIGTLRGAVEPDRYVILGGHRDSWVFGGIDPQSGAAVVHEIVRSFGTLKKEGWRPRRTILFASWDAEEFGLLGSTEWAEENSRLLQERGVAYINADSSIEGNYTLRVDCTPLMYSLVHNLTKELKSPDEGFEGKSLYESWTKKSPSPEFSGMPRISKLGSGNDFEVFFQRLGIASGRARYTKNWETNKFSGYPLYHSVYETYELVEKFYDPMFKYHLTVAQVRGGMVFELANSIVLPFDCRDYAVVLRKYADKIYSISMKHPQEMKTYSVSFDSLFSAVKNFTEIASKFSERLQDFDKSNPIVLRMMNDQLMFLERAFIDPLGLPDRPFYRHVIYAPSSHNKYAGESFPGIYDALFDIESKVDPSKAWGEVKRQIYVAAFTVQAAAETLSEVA

One may read the Ki as a dissociation constant, usually derived from enzyme kinetics or from competition with a known ligand. Low values mean tighter binding, high ones weaker binding. As to `O=C(O)CCC[C@@H](OC(=O)N[C@@H](CCCCNC(=O)[C@H](Cc1c2ccccc2cc2ccccc12)NC(=O)[C@H]1CC[C@H](CNC(=O)CCc2ccc(O)c(CN(CCN(CC(=O)O)Cc3cc(CCC(=O)O)ccc3O)CC(=O)O)c2)CC1)C(=O)O)C(=O)O` [AR-2-113-2, HBED-CC-PSMA-Aad-carbamate], the Ki in data set [1] turned out to be 56.3 nM.
Same read-out and setting: the figure for `O=C(O)CCC[C@H](OC(=O)N[C@@H](CCCCNC(=O)[C@H](Cc1c2ccccc2cc2ccccc12)NC(=O)[C@H]1CC[C@H](CNC(=O)CCc2ccc(O)c(CN(CCN(CC(=O)O)Cc3cc(CCC(=O)O)ccc3O)CC(=O)O)c2)CC1)C(=O)O)C(=O)O` [AR-2-113-1, HBED-CC-PSMA-Aad-carbamate] is 3.44 nM; for `O=C(O)CC[C@H](NC(=O)N[C@@H](C[C@@H]1C[C@H]1CNC(=O)[C@H](Cc1c2ccccc2cc2ccccc12)NC(=O)[C@H]1CC[C@H](CNC(=O)CN2CCN(CC(=O)O)CCN(CC(=O)O)CCN(CC(=O)O)CC2)CC1)C(=O)O)C(=O)O` [ADZ-4-101] it is 2.42 nM.
In data set [1], `O=C(O)CC[C@H](NC(=O)N[C@@H](C[C@H]1C[C@@H]1CNC(=O)[C@H](Cc1c2ccccc2cc2ccccc12)NC(=O)[C@H]1CC[C@H](CNC(=O)CN2CCN(CC(=O)O)CCN(CC(=O)O)CCN(CC(=O)O)CC2)CC1)C(=O)O)C(=O)O` [PD-6-49] had a Ki of 11.9 nM.
In data set [1], `O=C(O)CCC[C@H](NC(=O)N[C@@H](CCCCCNC(=O)[C@H](Cc1c2ccccc2cc2ccccc12)NC(=O)C1CCC(CNC(=O)CN2CCN(CC(=O)O)CCN(CC(=O)O)CCN(CC(=O)O)CC2)CC1)C(=O)O)C(=O)O` (stereo partly shown) [CCZ02010] displayed a Ki of 17 nM.
`O=C(O)CCC[C@H](NC(=O)N[C@@H](CSC[C@H](NC(=O)[C@H](Cc1c2ccccc2cc2ccccc12)NC(=O)C1CCC(CNC(=O)CN2CCN(CC(=O)O)CCN(CC(=O)O)CCN(CC(=O)O)CC2)CC1)C(=O)O)C(=O)O)C(=O)O` (stereo partly shown) [CCZ02032]: in data set [1], the affinity corresponds to a Ki of 3.2 nM.
Still for that read-out and setting: then `O=C(O)CCC[C@H](NC(=O)N[C@@H](CSC[C@@H](NC(=O)[C@H](Cc1c2ccccc2cc2ccccc12)NC(=O)C1CCC(CNC(=O)CN2CCN(CC(=O)O)CCN(CC(=O)O)CCN(CC(=O)O)CC2)CC1)C(=O)O)C(=O)O)C(=O)O` (stereo partly shown) [CCZ02033], with 461 nM; and `O=C(O)CCC[C@H](NC(=O)N[C@@H](COCCNC(=O)[C@H](Cc1c2ccccc2cc2ccccc12)NC(=O)C1CCC(CNC(=O)CN2CCN(CC(=O)O)CCN(CC(=O)O)CCN(CC(=O)O)CC2)CC1)C(=O)O)C(=O)O` (stereo partly shown) [CCZ02011], with 1.23 nM; and `O=C(O)CCC[C@@H](OC(=O)N[C@@H](CCCCNC(=O)[C@H](Cc1c2ccccc2cc2ccccc12)NC(=O)[C@H]1CC[C@H](CNC(=O)CN2CCN(CC(=O)O)CCN(CC(=O)O)CCN(CC(=O)O)CC2)CC1)C(=O)O)C(=O)O` [AR-2-050-2, DOTA-PSMA-Aad-carbamate], with 240 nM.
The same measure, in the same setting: the figure for `O=C(O)CCC[C@H](NC(=O)N[C@@H](CCCONC(=O)[C@H](Cc1c2ccccc2cc2ccccc12)NC(=O)C1CCC(CNC(=O)CN2CCN(CC(=O)O)CCN(CC(=O)O)CCN(CC(=O)O)CC2)CC1)C(=O)O)C(=O)O` (stereo partly shown) [CCZ02018] is 1.61 ± 0.04 nM.
Regarding `O=C(O)CSCC(NC(=O)NC(Cc1ccc(NC(=O)C(Cc2c3ccccc3cc3ccccc23)NC(=O)C2CCC(CNC(=O)CN3CCN(CC(=O)O)CCN(CC(=O)O)CCN(CC(=O)O)CC3)CC2)cc1)C(=O)O)C(=O)O.[68Ga]` (stereo not shown) [^68Ga-CCZ01188], the “Biodistribution, Adrenal (Avg)” value in data set [2] (Adrenal) was determined as 0.98 % ID/g. The “Biodistribution, Blood (Avg)” value in data set [2] (Blood) turned out to be 3.91 % ID/g. Further, the “Biodistribution, Bone (Avg)” value in data set [2] (Bone) amounted to 0.23 % ID/g. Besides, the “Biodistribution, Brain (Avg)” value in data set [2] (Brain) is listed as 0.07 % ID/g. Besides, the “Biodistribution, Fat (Avg)” value in data set [2] (Fat) turned out to be 0.62 % ID/g. In addition, the “Biodistribution, Heart (Avg)” value in data set [2] (Heart) is 1.03 % ID/g. In addition, the “Biodistribution, Intestine (Avg)” value in data set [2] (Intestine) is given as 0.56 % ID/g. Also, the “Biodistribution, Kidney (Avg)” value in data set [2] (Kidney) is reported as 4.02 % ID/g. The “Biodistribution, LNCaP tumor (Avg)” value in data set [2] (LNCaP tumor) was 1.43 % ID/g. Further, in data set [2] (Liver), the “Biodistribution, Liver (Avg)” value turned out to be 0.81 % ID/g. For the same molecule, the “Biodistribution, Lungs (Avg)” value in data set [2] (Lungs) came out at 2.15 % ID/g. Also, the “Biodistribution, Muscle (Avg)” value in data set [2] (Muscle) came out at 0.41 % ID/g. Further, in data set [2] (Pancreas), the “Biodistribution, Pancreas (Avg)” value amounted to 0.38 % ID/g. The “Biodistribution, Salivary gland (Avg)” value in data set [2] (Salivary gland) amounted to 1.56 % ID/g. In data set [2] (Seminal), the “Biodistribution, Seminal (Avg)” value stood at 0.85 % ID/g. The “Biodistribution, Spleen (Avg)” value in data set [2] (Spleen) was found to be 0.61 % ID/g. Moreover, the “Biodistribution, Stomach (Avg)” value in data set [2] (Stomach) is 0.19 % ID/g. In addition, in data set [2] (Testes), the “Biodistribution, Testes (Avg)” value worked out at 0.82 % ID/g. Also, the “Biodistribution, Thyroid (Avg)” value in data set [2] (Thyroid) is 0.67 % ID/g. In data set [2] (Urine), the “Biodistribution, Urine (Avg)” value is given as 367.12 % ID/g.
`O=C(O)CCC[C@H](OC(=O)N[C@@H](CCCCNC(=O)[C@H](Cc1c2ccccc2cc2ccccc12)NC(=O)[C@H]1CC[C@H](CNC(=O)CN2CCN(CC(=O)O)CCN(CC(=O)O)CCN(CC(=O)O)CC2)CC1)C(=O)O)C(=O)O` [AR-2-050-1, DOTA-PSMA-Aad-carbamate]: the Ki in data set [1] amounted to 8.99 nM.
